Laboratory results published in ChEMBL document CHEMBL1201861, “Genomics of Drug Sensitity in Cancer screening data, Wellcome Trust Sanger Institute”.

What was measured:
Test in all cases: cells
Type in all cases: functional, cell-based
Conditions in all cases: Homo sapiens
[1] = tested on: COLO-792
Description: SANGER: Inhibition of human COLO-792 cell growth in a cell viability assay.

[2] = tested on: COR-L105;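 further: cell growth inhibition determined with a viability assay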
Description: SANGER: Inhibition of human COR-L105 cell growth in a cell viability assay.

[3] = tested on: DBTRG-05MG;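 further: cell viability assay measuring growth inhibition of human DBTRG-05MG cells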
Description: SANGER: Inhibition of human DBTRG-05MG cell growth in a cell viability assay.

[4] = tested on: DMS-153
Description: SANGER: Inhibition of human DMS-153 cell growth in a cell viability assay.

[5] = tested on: Daudi;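 further: growth inhibition of Daudi cells, read out by a viability assay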
Description: SANGER: Inhibition of human Daudi cell growth in a cell viability assay.

[6] = tested on: EFO-21;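 further: growth inhibition of EFO-21 cells measured with a viability assay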
Description: SANGER: Inhibition of human EFO-21 cell growth in a cell viability assay.

[7] = tested on: EFO-27;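 further: growth inhibition of EFO-27 cells, read out with a cell viability assay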
Description: SANGER: Inhibition of human EFO-27 cell growth in a cell viability assay.

[8] = tested on: EHEB;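 further: growth inhibition of human EHEB cells, read out with a cell viability assay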
Description: SANGER: Inhibition of human EHEB cell growth in a cell viability assay.

[9] = tested on: H4
Description: SANGER: Inhibition of human H4 cell growth in a cell viability assay.

[10] = tested on: HCC1419;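 further: growth inhibition of human HCC1419 cells, read out as cell viability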
Description: SANGER: Inhibition of human HCC1419 cell growth in a cell viability assay.

[11] = tested on: HCC38;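 further: cell viability assay on the human HCC38 cell line, with IC50 marking the concentration that inhibits cell growth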
Description: SANGER: Inhibition of human HCC38 cell growth in a cell viability assay.

[12] = tested on: HCT-116
Description: SANGER: Inhibition of human HCT-116 cell growth in a cell viability assay.

[13] = tested on: HLE;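 further: growth inhibition of human HLE cells, read out by a cell viability assay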
Description: SANGER: Inhibition of human HLE cell growth in a cell viability assay.

[14] = tested on: HT-1080
Description: SANGER: Inhibition of human HT-1080 cell growth in a cell viability assay.

[15] = tested on: HT-3;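 further: growth inhibition measured with a cell viability readout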
Description: SANGER: Inhibition of human HT-3 cell growth in a cell viability assay.

[16] = tested on: Hs-578T
Description: SANGER: Inhibition of human Hs-578-T cell growth in a cell viability assay.

[17] = tested on: J82;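 further: growth inhibition of J82 cells, read out with a cell viability assay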
Description: SANGER: Inhibition of human J82 cell growth in a cell viability assay.

[18] = tested on: KMS-12-PE;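 further: growth inhibition of human KMS-12-PE cells, measured with a cell viability assay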
Description: SANGER: Inhibition of human KMS-12-PE cell growth in a cell viability assay.

[19] = tested on: KU-19-19
Description: SANGER: Inhibition of human KU-19-19 cell growth in a cell viability assay.

[20] = tested on: KYSE-510;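 further: cell viability readout used to measure how strongly growth of the cell line is suppressed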
Description: SANGER: Inhibition of human KYSE-510 cell growth in a cell viability assay.

[21] = tested on: KYSE-520 cell line;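 further: growth inhibition of human KYSE-520 cells, read out with a viability assay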
Description: SANGER: Inhibition of human KYSE-520 cell growth in a cell viability assay.

[22] = tested on: KYSE-70 cell line;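 further: cell viability assay read-out, with IC50 expressing suppression of KYSE-70 cell growth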
Description: SANGER: Inhibition of human KYSE-70 cell growth in a cell viability assay.

[23] = tested on: LB996-RCC
Description: SANGER: Inhibition of human LB996-RCC cell growth in a cell viability assay.

[24] = tested on: LK-2;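 further: growth inhibition of LK-2 cells, read out with a viability assay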
Description: SANGER: Inhibition of human LK-2 cell growth in a cell viability assay.

[25] = tested on: LU-99A;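 further: growth inhibition of LU-99A cells, read out with a cell viability assay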
Description: SANGER: Inhibition of human LU-99A cell growth in a cell viability assay.

[26] = tested on: MDA-MB-175-VII
[27] = tested on: MG-63;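 further: growth inhibition of human MG-63 cells, read out with a cell viability assay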
Description: SANGER: Inhibition of human MG-63 cell growth in a cell viability assay.

[28] = tested on: NALM-6;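 further: growth inhibition of NALM-6 cells, read out with a cell viability assay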
Description: SANGER: Inhibition of human NALM-6 cell growth in a cell viability assay.

[29] = tested on: NCI-H1436;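 further: growth suppression of human NCI-H1436 cells, determined with a cell viability readout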
Description: SANGER: Inhibition of human NCI-H1436 cell growth in a cell viability assay.

[30] = tested on: NCI-H1651;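 further: Read-out is a cell viability assay, with IC50 expressing inhibition of NCI-H1651 cell growth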
Description: SANGER: Inhibition of human NCI-H1651 cell growth in a cell viability assay.

[31] = tested on: NCI-H1792;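 further: growth inhibition of human NCI-H1792 cells, read out as cell viability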
Description: SANGER: Inhibition of human NCI-H1792 cell growth in a cell viability assay.

[32] = tested on: NCI-H2122;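 further: growth inhibition of the cells, read out with a cell viability assay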
Description: SANGER: Inhibition of human NCI-H2122 cell growth in a cell viability assay.

[33] = tested on: NCI-H2196;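 further: cell viability assay used as the readout of growth inhibition in NCI-H2196 cells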
Description: SANGER: Inhibition of human NCI-H2196 cell growth in a cell viability assay.

[34] = tested on: NCI-H441;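 further: growth inhibition of NCI-H441 cells, read out with a cell viability assay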
Description: SANGER: Inhibition of human NCI-H441 cell growth in a cell viability assay.

[35] = tested on: NCI-H596;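 further: growth inhibition of NCI-H596 cells, read out with a cell viability assay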
Description: SANGER: Inhibition of human NCI-H596 cell growth in a cell viability assay.

[36] = tested on: NCI-H748;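 further: growth inhibition of NCI-H748 cells, measured by a cell viability assay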
Description: SANGER: Inhibition of human NCI-H748 cell growth in a cell viability assay.

[37] = tested on: OAW-42;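 further: growth inhibition of OAW-42 cells, read out with a cell viability assay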
Description: SANGER: Inhibition of human OAW-42 cell growth in a cell viability assay.

[38] = tested on: P31-FUJ;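 further: growth inhibition of P31-FUJ cells, read out with a viability assay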
Description: SANGER: Inhibition of human P31-FUJ cell growth in a cell viability assay.

[39] = tested on: PC-14;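 further: cell viability assay measuring inhibition of PC-14 cell growth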
Description: SANGER: Inhibition of human PC-14 cell growth in a cell viability assay.

[40] = tested on: REH;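 further: growth inhibition of REH cells determined with a cell viability read-out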
Description: SANGER: Inhibition of human REH cell growth in a cell viability assay.

[41] = tested on: RERF-LC-MS;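 further: growth inhibition of human RERF-LC-MS cells, read out by a cell viability assay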
Description: SANGER: Inhibition of human RERF-LC-MS cell growth in a cell viability assay.

[42] = tested on: RT-112
Description: SANGER: Inhibition of human RT-112 cell growth in a cell viability assay.

[43] = tested on: SCC-9;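 further: Read-out is a cell viability assay, with values giving inhibition of cell growth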
Description: SANGER: Inhibition of human SCC-9 cell growth in a cell viability assay.

[44] = tested on: SF-295;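 further: growth inhibition of SF-295 cells, read out with a cell viability assay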
Description: SANGER: Inhibition of human SF295 cell growth in a cell viability assay.

[45] = tested on: SK-MEL-24;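 further: growth inhibition read out by a cell viability assay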
Description: SANGER: Inhibition of human SK-MEL-24 cell growth in a cell viability assay.

[46] = tested on: SK-MM-2;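 further: growth inhibition of human SK-MM-2 cells, read out with a cell viability assay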
Description: SANGER: Inhibition of human SK-MM-2 cell growth in a cell viability assay.

[47] = tested on: SNU-387
Description: SANGER: Inhibition of human SNU-387 cell growth in a cell viability assay.

[48] = tested on: SUP-T1;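 further: growth inhibition of human SUP-T1 cells, read out as cell viability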
Description: SANGER: Inhibition of human SUP-T1 cell growth in a cell viability assay.

[49] = tested on: SW1783;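 further: cell growth inhibition measured with a viability assay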
Description: SANGER: Inhibition of human SW1783 cell growth in a cell viability assay.

[50] = tested on: SW948;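 further: growth inhibition of SW948 cells, read out with a cell viability assay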
Description: SANGER: Inhibition of human SW948 cell growth in a cell viability assay.

[51] = tested on: SiHa;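 further: Viability-based readout of growth inhibition in SiHa cells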
Description: SANGER: Inhibition of human SiHa cell growth in a cell viability assay.

[52] = tested on: T84;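 further: growth inhibition measured with a cell viability readout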
Description: SANGER: Inhibition of human T84 cell growth in a cell viability assay.

[53] = tested on: 639-V;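 further: growth inhibition of 639-V cells, read out with a cell viability assay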
Description: SANGER: Inhibition of human 639-V cell growth in a cell viability assay.

[54] = tested on: 8305C
Description: SANGER: Inhibition of human 8305C cell growth in a cell viability assay.

[55] = tested on: A-431;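 further: growth inhibition of A-431 cells, determined with a cell viability read-out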
Description: SANGER: Inhibition of human A431 cell growth in a cell viability assay.

[56] = tested on: AU565;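 further: cell viability assay measuring growth inhibition of human AU565 cells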
Description: SANGER: Inhibition of human AU565 cell growth in a cell viability assay.

[57] = tested on: BFTC-905
Description: SANGER: Inhibition of human BFTC-905 cell growth in a cell viability assay.

[58] = tested on: BL-41;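 further: growth inhibition of human BL-41 cells, read out with a cell viability assay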
Description: SANGER: Inhibition of human BL-41 cell growth in a cell viability assay.

[59] = tested on: CA46;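 further: growth inhibition of human CA46 cells, read out by a cell viability assay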
Description: SANGER: Inhibition of human CA46 cell growth in a cell viability assay.

[60] = tested on: U-698-M
Description: SANGER: Inhibition of human U-698-M cell growth in a cell viability assay.

[61] = tested on: U-251;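 further: growth inhibition of human U-251 cells, read out through a cell viability assay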
Description: SANGER: Inhibition of human U251 cell growth in a cell viability assay.

[62] = tested on: UACC-893
Description: SANGER: Inhibition of human UACC-893 cell growth in a cell viability assay.

## CO[C@@]12[C@H](COC(N)=O)C3=C(C(=O)C(C)=C(N)C3=O)N1C[C@@H]1N[C@@H]12 [MITOMYCIN]
[1]
  IC50: 1500 nM
[2]
  IC50: 1610 nM
[3]
  IC50: 570 nM
[4]
  IC50: 425 nM
[5]
  IC50: 392 nM
[6]
  IC50: 591 nM
[7]
  IC50: 1130 nM
[8]
  IC50: 672 nM
[9]
  IC50: < 62.5 nM
[10]
  IC50: 3480 nM
[11]
  IC50: 604 nM
[12]
  IC50: 1020 nM
[13]
  IC50: 498 nM
[14]
  IC50: 354 nM
[15]
  IC50: < 62.5 nM
[16]
  IC50: 6200 nM
[17]
  IC50: < 62.5 nM
[18]
  IC50: 3830 nM
[19]
  IC50: 3360 nM
[20]
  IC50: < 62.5 nM
[21]
  IC50: 772 nM
[22]
  IC50: 224 nM
[23]
  IC50: 17.7 nM
[24]
  IC50: 358 nM
[25]
  IC50: 224 nM
[26]
  IC50: 3160 nM
[27]
  IC50: 226 nM
[28]
  IC50: < 62.5 nM
[29]
  IC50: 1930 nM
[30]
  IC50: < 62.5 nM
[31]
  IC50: 697 nM
[32]
  IC50: < 62.5 nM
[33]
  IC50: 886 nM
[34]
  IC50: 17.6 nM
[35]
  IC50: 1540 nM
[36]
  IC50: 59.5 nM
[37]
  IC50: 89.4 nM
[38]
  IC50: 3460 nM
[39]
  IC50: 491 nM
[40]
  IC50: < 62.5 nM
[41]
  IC50: 1030 nM
[42]
  IC50: 178 nM
[43]
  IC50: 3790 nM
[44]
  IC50: < 62.5 nM
[45]
  IC50: 1370 nM
[46]
  IC50: 2720 nM
[47]
  IC50: 2930 nM
[48]
  IC50: 110 nM
[49]
  IC50: 38.6 nM
[50]
  IC50: 3750 nM
[51]
  IC50: 1890 nM
[52]
  IC50: 173 nM
[53]
  IC50: < 62.5 nM
[54]
  IC50: 156 nM
[55]
  IC50: 43.8 nM
[56]
  IC50: 501 nM
[57]
  IC50: 92.7 nM
[58]
  IC50: 295 nM
[59]
  IC50: 1020 nM
[60]
  IC50: 1600 nM
[61]
  IC50: 129 nM
[62]
  IC50: 418 nM
